In patent publication US11534457B2, “Use of dextran sulfate” (priority 2017, dated 2022):
Marks after values point to notes of the source that are not given here.

System: severe traumatic brain injury (sTBI)
Assay: sTBI in rats, HPLC of purine-pyrimidine / energy metabolites in brain (Example 3)
Type: in vivo, Male Wistar rats
Details: sacrifice 7 days
Description: The experimental protocol used in this study was approved by the Ethical Committee of the Catholic University of Rome, according to international standards and guidelines for animal care. Male Wistar rats of 300-350 g body weight (b.w.) were fed with standard laboratory diet and water ad libitum in a controlled environment.
1) n=6 animals subjected to sTBI, with drug administration after 30 minutes and sacrifice at 2 days post-TBI (Acute phase 1)
2) n=6 animals subjected to severe-TBI, with drug administration after 30 minutes and sacrifice at 7 days post-TBI (Acute phase 2).
3) n=6 animals subjected to severe-TBI, with drug administration after 3 days and sacrifice at 7 days post-TBI (Chronic phase).
As the anesthetic mixture, animals received 35 mg/kg b.w. ketamine and 0.25 mg/kg b.w. midazolam by i.p. injection. sTBI was induced by dropping a 450 g weight from 2 m height on to the rat head that had been protected by a metal disk previously fixed on the skull, according to the “weight drop” impact acceleration model (Marmarou et al., A new model of diffuse brain injury in rats. Part I: Pathophysiology and biomechanics. J Neurosurg. 1994; 80: 291-300). […] At the end of each period of treatment, rats were anesthetized again and then immediately sacrificed.
The drug treatment was a subcutaneous injection of 0.5 ml of LMW-DS (15 mg/kg) and administered according to the aforementioned schematic protocol.
An in vivo craniectomy was performed in all animals during anesthesia, after carefully removing the rat's skull, the brain was exposed and removed with a surgical spatula and quickly dropped in liquid nitrogen. After the wet weight (w.w.) determination, tissue preparation was affected as previously disclosed (Tavazzi et al., Cerebral oxidative stress and depression of energy metabolism correlate with severity of diffuse brain injury in rats. Neurosurgery. 2005; 56: 582-589; Vagnozzi et al., Temporal window of metabolic brain vulnerability to concussions: mitochondrial-related impairment-part I. Neurosurgery. 2007; 61: 379-388; Tavazzi et al., Temporal window of metabolic brain vulnerability to concussions: oxidative and nitrosative stresses-part II. Neurosurgery. 2007; 61: 390-395; Amorini et al., Severity of experimental traumatic brain injury modulates changes in concentrations of cerebral free amino acids. J Cell Mol Med. 2017; 21: 530-542.). Briefly, whole brain homogenization was performed with 7 ml of ice-cold, nitrogen-saturated, precipitating solution composed by CH3CN+10 mM KH2PO4, pH 7.40, (3:1; v:v), and using an Ultra-Turrax set at 24,000 rpm/min (Janke & Kunkel, Staufen, Germany). After centrifugation at 20,690×g, for 10 min at 4° C., the clear supernatants were saved, pellets were supplemented with 3 ml of the precipitating solution and homogenized again as described above. A second centrifugation was performed (20,690×g, for 10 min at 4° C.), pellets were saved, supernatants combined with those previously obtained, extracted by vigorous agitation with a double volume of HPLC-grade CHCl3 and centrifuged as above. The upper aqueous phases containing water-soluble low-molecular weight compounds were collected, subjected to chloroform washings for two more times (this procedure allowed the removal of all the organic solvent and of any lipid soluble compound from the buffered tissue extracts), adjusted in volumes with 10 mM KH2PO4, pH 7.40, to have ultimately aqueous 10% tissue homogenates and saved at −80° C. until assayed. […]

[1] = Acute phase 2: 15 mg/kg s.c. 30 min post-sTBI
[2] = Chronic phase: 15 mg/kg s.c. 3 days post-sTBI

low molecular weight dextran sulfate [LMW-DS]
NO2, cerebral concentration [1]: 226.40 ± 30.95^b nmol/g (w.w.)
NO3, cerebral concentration [1]: 198.56 ± 25.93^e,i nmol/g (w.w.)
UDP, cerebral concentration [1]: 40.38 ± 8.50^a,i nmol/g (w.w.)
UDP-Gal, cerebral concentration [1]: 145.14 ± 27.76 nmol/g (w.w.)
UDP-GalNac, cerebral concentration [1]: 19.90 ± 3.12^a,e nmol/g (w.w.)
UDP-Glc, cerebral concentration [1]: 44.44 ± 7.59^i nmol/g (w.w.)
UDP-GlcNac, cerebral concentration [1]: 130.65 ± 28.41^a nmol/g (w.w.)
UMP, cerebral concentration [1]: 138.73 ± 32.01^b nmol/g (w.w.)
UTP, cerebral concentration [1]: 146.71 ± 32.68^e nmol/g (w.w.)
acetyl-CoA, cerebral concentration [1]: 36.86 ± 4.11^e nmol/g (w.w.)
adenine, cerebral concentration [1]: 58.16 ± 6.36^a,f nmol/g (w.w.)
ascorbic acid, cerebral concentration [1]: 3512.58 ± 224.62^a,e nmol/g (w.w.)
creatinine, cerebral concentration [1]: 37.27 ± 5.82^a,e,j nmol/g (w.w.)
cytidine, cerebral concentration [1]: 16.18 ± 4.21^e nmol/g (w.w.)
cytosine, cerebral concentration [1]: 15.70 ± 4.10^f nmol/g (w.w.)
guanine, cerebral concentration [1]: 4.73 ± 1.07 nmol/g (w.w.)
guanosine, cerebral concentration [1]: 17.90 ± 3.24^j nmol/g (w.w.)
hypoxanthine, cerebral concentration [1]: 12.90 ± 2.58^a,j nmol/g (w.w.)
inosine, cerebral concentration [1]: 85.52 ± 20.36^e nmol/g (w.w.)
malonyl-CoA, cerebral concentration [1]: 11.29 ± 2.27^b nmol/g (w.w.)
orotic acid, cerebral concentration [1]: 13.34 ± 3.65^a nmol/g (w.w.)
thymidine, cerebral concentration [1]: 0.49 ± 0.20^f nmol/g (w.w.)
uracil, cerebral concentration [1]: 19.40 ± 7.52^a,e nmol/g (w.w.)
uric acid, cerebral concentration [1]: 19.17 ± 2.15^a,h,i nmol/g (w.w.)
uridine, cerebral concentration [1]: 63.02 ± 9.66^b,e nmol/g (w.w.)
xanthine, cerebral concentration [1]: 10.41 ± 2.11^f nmol/g (w.w.)
β-pseudouridine, cerebral concentration [1]: 13.26 ± 3.16^a,e,j nmol/g (w.w.)
ADO, cerebral concentration [2]: 89.97 ± 12.98^a nmol/g (w.w.)
ADP, cerebral concentration [2]: 315.53 ± 46.53^a nmol/g (w.w.)
ADP-ribose, cerebral concentration [2]: 173.94 ± 8.45^a nmol/g (w.w.)
AMP, cerebral concentration [2]: 90.01 ± 21.24^a nmol/g (w.w.)
ATP, cerebral concentration [2]: 1381.03 ± 212.64^a nmol/g (w.w.)
CDP choline, cerebral concentration [2]: 8.37 ± 2.19 nmol/g (w.w.)
CDP, cerebral concentration [2]: 23.55 ± 6.45^a nmol/g (w.w.)
CMP, cerebral concentration [2]: 20.51 ± 3.73^a,f nmol/g (w.w.)
CTP, cerebral concentration [2]: 25.23 ± 2.93^a,f nmol/g (w.w.)
CoA-SH, cerebral concentration [2]: 27.58 ± 6.24^f nmol/g (w.w.)
GDP glucose, cerebral concentration [2]: 43.85 ± 5.06^b nmol/g (w.w.)
GDP, cerebral concentration [2]: 173.05 ± 28.68^a,e nmol/g (w.w.)
GMP, cerebral concentration [2]: 148.56 ± 31.21^a nmol/g (w.w.)
GSH, cerebral concentration [2]: 2608.67 ± 358.07^a,e nmol/g (w.w.)
GSSG, cerebral concentration [2]: 231.08 ± 44.34^b,f nmol/g (w.w.)
GTP, cerebral concentration [2]: 290.92 ± 34.68^a,f nmol/g (w.w.)
IMP, cerebral concentration [2]: 99.29 ± 13.82^a nmol/g (w.w.)
MDA, cerebral concentration [2]: 11.62 ± 3.90^a,e nmol/g (w.w.)
NADH, cerebral concentration [2]: 11.78 ± 3.32^e nmol/g (w.w.)
NADPH, cerebral concentration [2]: 7.34 ± 2.65^f nmol/g (w.w.)
NADP^+, cerebral concentration [2]: 16.44 ± 2.66^a,f nmol/g (w.w.)
NAD^+, cerebral concentration [2]: 301.13 ± 29.90^a nmol/g (w.w.)
NM, cerebral concentration [2]: 6375.36 ± 974.12^a,e nmol/g (w.w.)
NO2, cerebral concentration [2]: 217.67 ± 55.04^a nmol/g (w.w.)
NO3, cerebral concentration [2]: 241.27 ± 18.84^e nmol/g (w.w.)
UDP, cerebral concentration [2]: 57.40 ± 5.88^a,f nmol/g (w.w.)
UDP-Gal, cerebral concentration [2]: 122.29 ± 12.15 nmol/g (w.w.)
UDP-GalNac, cerebral concentration [2]: 21.84 ± 2.80^a,e nmol/g (w.w.)
UDP-Glc, cerebral concentration [2]: 35.79 ± 3.45^b nmol/g (w.w.)
UDP-GlcNac, cerebral concentration [2]: 129.42 ± 15.88^b nmol/g (w.w.)
UMP, cerebral concentration [2]: 103.11 ± 29.79 nmol/g (w.w.)
UTP, cerebral concentration [2]: 136.80 ± 33.25^f nmol/g (w.w.)
acetyl-CoA, cerebral concentration [2]: 35.68 ± 6.55^e nmol/g (w.w.)
adenine, cerebral concentration [2]: 52.94 ± 8.59^a,f nmol/g (w.w.)
ascorbic acid, cerebral concentration [2]: 3375.03 ± 856.41^a,e nmol/g (w.w.)
creatinine, cerebral concentration [2]: 51.25 ± 10.17^a,f nmol/g (w.w.)
cytidine, cerebral concentration [2]: 14.71 ± 2.83^e nmol/g (w.w.)
cytosine, cerebral concentration [2]: 15.58 ± 2.50^b,f nmol/g (w.w.)
guanine, cerebral concentration [2]: 5.31 ± 1.04^b nmol/g (w.w.)
guanosine, cerebral concentration [2]: 28.87 ± 7.60^a,f nmol/g (w.w.)
hypoxanthine, cerebral concentration [2]: 17.97 ± 4.49^a nmol/g (w.w.)
inosine, cerebral concentration [2]: 105.81 ± 25.57^f nmol/g (w.w.)
malonyl-CoA, cerebral concentration [2]: 10.00 ± 1.95^b nmol/g (w.w.)
orotic acid, cerebral concentration [2]: 12.05 ± 1.50^a nmol/g (w.w.)
thymidine, cerebral concentration [2]: 0.71 ± 0.11 nmol/g (w.w.)
uracil, cerebral concentration [2]: 16.57 ± 2.99^a,f nmol/g (w.w.)
uric acid, cerebral concentration [2]: 27.77 ± 3.60^a nmol/g (w.w.)
uridine, cerebral concentration [2]: 63.28 ± 3.37^f nmol/g (w.w.)
xanthine, cerebral concentration [2]: 9.35 ± 0.83^f nmol/g (w.w.)
β-pseudouridine, cerebral concentration [2]: 18.62 ± 2.80^a nmol/g (w.w.)
